Results on 1 compound are retold here after patent US20120159656A1, “COMPOSITIONS AND METHODS FOR […] DEFECTS” (Galenea Corp., priority 2009, published 2012).

Entries after “also recorded” stand apart in the source; their conditions may differ.

The test system of assay [1] is high-power gamma oscillations in the PFC. In words: EEG recording from PFC in absence and presence of novel objects before and after PCP. It counts as in vivo, mouse. As to conditions: PCP 5 mg/kg intraperitoneal, gamma 30-90 Hz. The protocol:
Real-time monitoring of EEGs and single-unit activity (SUA) from PFC was performed via surgical implantation of 8-microwire bundle electrodes (FIG. 5A, B). […] Recordings were made using commercially available multichannel hardware (Multichannel Systems, Reutlingen, Germany). The system is capable of monitoring EEGs and SUA from PFC in freely behaving mice (FIG. 5C) and this neural activity has been characterized (FIG. 5D).
In another series of experiments, the EEG recording techniques were determined to be sensitive enough to detect pharmacologically-induced perturbations in neural activity in vivo. For these studies EEGs from PFC were measured when mice were in the absence and presence of novel environmental stimuli. To determine whether EEGs recorded from PFC are sensitive to a pharmacologic manipulation known to impair cognitive function, animals were injected intraperitoneally with PCP (5 mg/kg) and EEGs were recorded in the absence and presence of novel environmental stimuli. This experiment confirmed that high-power gamma oscillations in the PFC were elicited while animals attend to novel stimuli in the environment (FIG. 10A). […] These observations confirm that the techniques for monitoring EEGs and SUA in the PFC of freely behaving mice are sensitive enough to detect treatments known to inhibit cognition.

The test system of the next assay is EEG power in the PFC. Kind of assay: Spectral analysis of PFC EEG by frequency band (area under the curve) in a familiar environment. It counts as in vivo, mouse. The protocol: Surgery, Animal handling and EEG recording were performed according to the methods disclosed herein (See, e.g., Examples 1-5). Recordings in a novel environment were made upon an animal's first exposure to the recording chamber. Animals were exposed to the recording chamber an additional 3 times (15 min each) to record EEGs from a familiar environment (fourth exposure).
EEG analysis. EEGs were analyzed using an automated FFT-periodogram function with Hamming windows in the Matlab analysis suite (pwelch function, The Mathworks, Inc., Natick MA). EEGs were analyzed in 10 sec intervals and power spectral analyses were computed for each 10 sec interval by averaging 1 sec power spectra with a 0.5 sec overlap across the entire 10 sec. Power across a given frequency band was determined by computing the area under the curve for various frequency bands (Theta: 4-12 Hz; GammaLow: 30-55 Hz; GammaHi: 65-90 Hz; Ripple: 100-300 Hz). Measures of power for each animal were binned and a frequency histogram representing number of events (10 sec each) observed at each power was computed. Frequency histograms across a given genotype were averaged to derive the final EEG power histogram for each frequency band.
To investigate the disease relevance of this intermediate power phenotype, EEGs were recorded from normal control animals in a familiar environment before and after they were treated with the psychotomimetic compound, phencyclidine (PCP) (5 mg/kg, IP).

In assay [2] the test system is gamma oscillations recorded from prefrontal cortex (PFC). Kind of assay: Continuous EEG recording from PFC of well-habituated mice, maximal gamma power (30-90 Hz). As to conditions: PCP 5 mg/kg.
The mark [3] stands for this setting: control animals, PCP 5 mg/kg IP.

In the case of `c1ccc(C2(N3CCCCC3)CCCCC2)cc1` [PCP, phencyclidine], the “expression of high-power gamma oscillations during novel object presentation” value in assay [1] is “completely blocked the expression of high-power gamma oscillations; also recorded: lack of a bimodal distribution in gamma oscillation power”. In the assay with EEG power in the PFC (control animals treated with PCP 5 mg/kg IP, n=5), the “average power in the GammaHi frequency band (65-90 Hz)” value came out at 19.12±0.11. Further, in the assay on EEG power in the PFC (setting [3]), the “effect on power in the GammaHi frequency band (65-90 Hz)” value was “significant increase in the number of high-powered events; also recorded: increased the average spectral power”, the “effect on power in the GammaLow frequency band (30-55 Hz)” value is on record as “significantly more high-powered GammaLow events; also recorded: increased the average spectral power”, the “effect on power in the Ripple frequency band (100-300 Hz)” value is reported as “no significant differences in power; also recorded: no effect” and the “effect on power in the Theta frequency band (4-12 Hz)” value was “significant increase; also recorded: increased the average spectral power”. In assay [2] (familiar environment, normal mice), the “distribution of the power of gamma oscillations” value is on record as “unimodal distribution of gamma oscillations with “Intermediate” power”. Also, in assay [2] (well-habituated animals, gamma 30-90 Hz), the “gamma oscillation power after injection” value came out at 4 μV^2/Hz.
